Experimental data published in PubChem BioAssay (NCI).
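Growth conditions: 96-well plates. Treatment: test compound, 48 hours, 5 concentrations. Analysis: linear interpolation between bracketing concentrations; unreached endpoints set to highest concentration. GI50 marks 50% less growth. TGI: total growth inhibition.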

Assays:
Assay in all cases: DTP human tumour cell line panel, 48 h
A549 NSCLC = tested on: A549 NSCLC
HL-60(TB) leukemia = tested on: HL-60(TB) leukemia
OVCAR-5 ovarian = tested on: OVCAR-5 ovarian
NCI/ADR-RES ovarian = tested on: NCI/ADR-RES ovarian
K-562 leukemia = tested on: K-562 leukemia
HCC-2998 colon = tested on: HCC-2998 colon
M14 melanoma = tested on: M14 melanoma
NCI-H460 lung = tested on: NCI-H460 lung
SN12C renal = tested on: SN12C renal
SW-620 colon = tested on: SW-620 colon

| SMILES | GI50 (A549 NSCLC) | TGI (A549 NSCLC) | GI50 (HL-60(TB) leukemia) | TGI (HL-60(TB) leukemia) | GI50 (OVCAR-5 ovarian) | TGI (OVCAR-5 ovarian) | GI50 (NCI/ADR-RES ovarian) | TGI (NCI/ADR-RES ovarian) | GI50 (K-562 leukemia) | TGI (K-562 leukemia) | GI50 (HCC-2998 colon) | TGI (HCC-2998 colon) | GI50 (M14 melanoma) | TGI (M14 melanoma) | GI50 (NCI-H460 lung) | TGI (NCI-H460 lung) | GI50 (SN12C renal) | TGI (SN12C renal) | GI50 (SW-620 colon) | TGI (SW-620 colon) |
| --- | --- | --- | --- | --- | --- | --- | --- | --- | --- | --- | --- | --- | --- | --- | --- | --- | --- | --- | --- | --- |
| Cc1ccc2c(C3C(C#N)=C(N)Oc4cc5ccccc5cc43)cc(=O)oc2c1 (centres undefined) | 2.95 µM | > 100 µM | 0.424 µM | 17 µM | 3.76 µM | > 100 µM | 0.833 µM | > 100 µM | 0.394 µM | > 100 µM | 3.91 µM | 58.6 µM | 0.697 µM | 21.3 µM | 0.883 µM | 15.5 µM | 5.27 µM | > 100 µM | 0.736 µM | > 100 µM |
| C=CCc1ccc(O)c(-c2ccc(O)c(CC=C)c2)c1 | 30.7 µM | > 100 µM | 9.66 µM | > 52.3 µM | 16.8 µM | 38.9 µM | 15.3 µM | 33.9 µM | 8.54 µM | > 46.1 µM | 18.4 µM | 36.5 µM | 21.4 µM | 48.4 µM | 14.1 µM | 35.3 µM | 14.4 µM | 29.6 µM | 18.7 µM | 36.9 µM |
| CCc1ccc(/C=C/c2ccc(O)c3ncccc23)[n+](C)c1 | 0.0377 µM | > 100 µM | 18.8 µM | 73.2 µM | > 100 µM | > 100 µM | > 100 µM | > 100 µM | 0.517 µM | > 100 µM | > 30.5 µM | > 100 µM |  | > 100 µM | 0.507 µM | > 100 µM | 0.457 µM | > 100 µM | 4.47 µM | > 100 µM |
| O=C1CCC/C=C\C[C@H]2C=CC(=O)/C2=C/C[C@H](C/C=C\CC(F)(F)F)O1 | 0.528 µM | 2.38 µM | 0.495 µM | 2.58 µM | 0.67 µM | 3.11 µM | 0.627 µM | 16.7 µM | 0.503 µM | 2.6 µM | 0.384 µM | 0.733 µM | 0.493 µM | 1.7 µM | 0.508 µM | 1.73 µM | 0.492 µM | 2.04 µM | 0.508 µM | 2.05 µM |
| S=c1[nH]c2c(Cl)c(Cl)c(Cl)c(Cl)c2[nH]1 |  | > 100 µM |  | 13 µM |  | 65 µM |  | 46.5 µM |  | 38.4 µM |  | 23.6 µM |  | 54.3 µM |  | 40.6 µM |  | 47 µM |  | 49.2 µM |
| C[C@@]12CCC[C@@](C)(C(=O)O)C1CC[C@]13CC(=O)[C@](CO)(C1)[C@@H](O)CC32 (some centres undefined) | > 100 µM | > 100 µM | > 100 µM | > 100 µM | > 100 µM | > 100 µM | > 100 µM | > 100 µM | > 100 µM | > 100 µM | > 100 µM | > 100 µM | > 100 µM | > 100 µM | > 100 µM | > 100 µM | > 100 µM | > 100 µM | > 100 µM | > 100 µM |
| C[C@H]1CN[C@@H]2[C@@H](C)[C@H]3[C@@H](C[C@H]4[C@@H]5CC[C@H]6C[C@@H](N)CC[C@]6(C)[C@H]5CC[C@]34C)O[C@@]2(O)C1 |  | 17.3 µM |  | 4.08 µM |  | 19.6 µM |  | 5.66 µM |  | 41.9 µM |  | 6.23 µM |  | 4.73 µM |  | 7.78 µM |  | 4.25 µM |  | 6.23 µM |
| Nc1c(C(=O)c2ccccc2)cnn1-c1ccc(F)cc1 | > 25 µM | > 25 µM | > 25 µM | > 25 µM | > 25 µM | > 25 µM | > 25 µM | > 25 µM | > 25 µM | > 25 µM | > 25 µM | > 25 µM | > 25 µM | > 25 µM | > 25 µM | > 25 µM | > 25 µM | > 25 µM | > 25 µM | > 25 µM |
